Here are results for 27 molecules from ChEMBL document CHEMBL4152251, “Lactam hybrid analogues of solonamide B and autoinducing peptides as potent S. aureus AgrC antagonists” (Eur J Med Chem, 2018).

SMILES strings stand for the structures. The source made the active and inactive calls. The calls are words filed in the database; no cut-off is given here. Bridge positions count the residues as written; N and C are the ends. Square brackets hold non-standard residues; d marks the D form. Peptide text beside a SMILES is read from it. * marks the point of attachment. Decanoyl(3,6,9-trioxa) = COCCOCCOCC(=O)*; Decanoyl = CCCCCCCCCC(=O)*; Heptanoyl = CCCCCCC(=O)*; Orn = NCCC[C@H](N)C(=O)O; Dab = NCC[C@H](N)C(=O)O; Dap = NC[C@H](N)C(=O)O

The IC50 is the point on the concentration scale where inhibition reaches its midpoint.

Test [1] deals with T1, Receptor-histidine kinase AgrC (Staphylococcus aureus, UniProt O07911).
T1 sequence (O07911 whole entry): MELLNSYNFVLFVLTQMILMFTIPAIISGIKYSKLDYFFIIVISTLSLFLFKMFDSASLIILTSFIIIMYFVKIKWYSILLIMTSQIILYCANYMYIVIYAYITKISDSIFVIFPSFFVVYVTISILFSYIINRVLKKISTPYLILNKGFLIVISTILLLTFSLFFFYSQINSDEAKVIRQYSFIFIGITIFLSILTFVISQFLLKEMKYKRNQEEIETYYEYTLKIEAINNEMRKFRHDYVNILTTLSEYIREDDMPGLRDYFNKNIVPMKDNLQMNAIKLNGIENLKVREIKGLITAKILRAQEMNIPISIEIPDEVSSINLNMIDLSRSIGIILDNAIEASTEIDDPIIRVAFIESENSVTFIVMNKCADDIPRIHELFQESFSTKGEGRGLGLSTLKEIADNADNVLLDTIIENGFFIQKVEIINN
Kind of test: Inhibition of AIP-stimulated quorum sensing system AgrC activation in Staphylococcus aureus RN10829 harboring P3:blaZ fusion assessed as reduction in beta-lactamse activity preincubated with organism followed by AIP addition measured after 45 mins by nitrocefin hydrolysis assay.

The target of test [2] is T2, Receptor-histidine kinase AgrC (Staphylococcus aureus) (UniProt O07911).
T2 sequence (whole entry): T1 sequence (O07911 whole entry)
Kind of test: Inhibition of AIP-stimulated quorum sensing system AgrC activation in Staphylococcus aureus RN10829 harboring P3:blaZ fusion assessed as reduction in beta-lactamse activity at 5 ug/ml preincubated with organism followed by AIP addition measured after 45 mins by nitrocefin hydrolysis assay.

Take `CCCCCC(=O)N[C@@H]1CNC(=O)[C@@H](CC(C)C)NC(=O)[C@@H](C)NC(=O)[C@@H](CC(C)C)NC(=O)[C@@H](Cc2ccccc2)NC1=O`: the concentration for half-maximal inhibition (IC50) in test [1] is 1430 nM. Besides, the inhibition result in test [2] was “Active”.

Regarding `CCCCCCC(=O)N[C@@H]1CNC(=O)[C@@H](CC(C)C)NC(=O)[C@@H](C)NC(=O)[C@@H](CCC(C)C)NC(=O)[C@@H](Cc2ccccc2)NC1=O`, the 50% inhibitory concentration (IC50) in test [1] was 609 nM. Also, the inhibition result in test [2] is “Active”.

`CCCCCCC(=O)N[C@@H]1CNC(=O)[C@@H](CCC(C)C)NC(=O)[C@@H](C)NC(=O)[C@@H](CC(C)C)NC(=O)[C@@H](Cc2ccccc2)NC1=O`: in test [1], the IC50 is 913 nM. Moreover, the inhibition result in test [2] was “Active”.

`CCCCCCC(=O)N[C@@H]1CNC(=O)[C@@H](CC(C)C)NC(=O)[C@@H](C)NC(=O)[C@@H](Cc2ccccc2)NC(=O)[C@@H](Cc2ccccc2)NC1=O`: the IC50 in test [1] is 739 nM. In addition, the inhibition entry in test [2] was “Active”.

Take `CCCCCCC(=O)N[C@@H]1CNC(=O)[C@@H](CC(C)C)NC(=O)[C@@H](C)NC(=O)[C@@H](C)NC(=O)[C@@H](Cc2ccccc2)NC1=O`: the inhibition entry in test [2] was “Active”.

For the molecule `CCCCCCC(=O)N[C@H]1CCNC(=O)[C@H](CC(C)C)NC(=O)[C@H](C)NC(=O)[C@H](CC(C)C)NC(=O)[C@H](Cc2ccccc2)NC1=O` (Heptanoyl-[Dab]FLAL; lactam 1-C), the inhibition result in test [2] is “inactive”.

In the case of `CCCCCCC(=O)N[C@@H]1CNC(=O)[C@@H](CC(C)C)NC(=O)[C@H](C)NC(=O)[C@H](CC(C)C)NC(=O)[C@@H](Cc2ccccc2)NC1=O`, in test [2], the inhibition result was “inactive”.

With `CCCCCCC(=O)N[C@@H]1CNC(=O)[C@@H](CC(C)C)NC(=O)[C@@H](C)NC(=O)[C@@H](CC(C)C)NC(=O)[C@@H](Cc2ccccc2)NC1=O`, the IC50 in test [1] is 622 nM. Further, the inhibition entry in test [2] is “Active”.

In the case of `CCCCCCC(=O)N[C@@H]1CNC(=O)[C@@H](Cc2ccccc2)NC(=O)[C@@H](C)NC(=O)[C@@H](CC(C)C)NC(=O)[C@@H](CC(C)C)NC1=O`, the inhibition entry in test [2] was “inactive”.

On to `CCCCCCC(=O)N[C@@H]1CNC(=O)[C@@H](CC(C)C)NC(=O)[C@@H](C)NC(=O)[C@@H](CC(C)C)NC(=O)[C@@H](Cc2c[nH]c3ccccc23)NC1=O`, for which the inhibition entry in test [2] is “inactive”.

On to `CCCCCCC(=O)N[C@H]1CCCCNC(=O)[C@H](CC(C)C)NC(=O)[C@H](C)NC(=O)[C@H](CC(C)C)NC(=O)[C@H](Cc2ccccc2)NC1=O` (Heptanoyl-KFLAL; lactam 1-C), for which the inhibition entry in test [2] was “inactive”.

As to `CCCCCCC(=O)N[C@H]1CCCNC(=O)[C@H](CC(C)C)NC(=O)[C@H](C)NC(=O)[C@H](CC(C)C)NC(=O)[C@H](Cc2ccccc2)NC1=O` (Heptanoyl-[Orn]FLAL; lactam 1-C), the inhibition entry in test [2] is “inactive”.

For the molecule `CCCCCCCCCC(=O)N[C@H]1CNC(=O)[C@H](CC(C)C)NC(=O)[C@H](C)NC(=O)[C@H](CC(C)C)NC(=O)[C@H](Cc2ccccc2)NC1=O` (Decanoyl-[Dap]FLAL; lactam 1-C), the inhibition result in test [2] was “Active”.

In the case of `CCCCCCCC(=O)N[C@@H]1CNC(=O)[C@@H](CC(C)C)NC(=O)[C@@H](C)NC(=O)[C@@H](CC(C)C)NC(=O)[C@@H](Cc2ccccc2)NC1=O`, the IC50 in test [1] is 457 nM. Besides, the inhibition entry in test [2] was “Active”.

For the molecule `COCCOCCOCC(=O)N[C@H]1CNC(=O)[C@H](CC(C)C)NC(=O)[C@H](C)NC(=O)[C@H](CC(C)C)NC(=O)[C@H](Cc2ccccc2)NC1=O` ({Decanoyl(3,6,9-trioxa)}-[Dap]FLAL; lactam 1-C), the inhibition result in test [2] is “inactive”.

In the case of `CCCCCCC(=O)N[C@@H]1CNC(=O)[C@@H](CC(C)C)NC(=O)[C@@H](C)NC(=O)[C@@H](CC(C)C)NC(=O)[C@@H](CCc2ccccc2)NC1=O`, the inhibition entry in test [2] is “inactive”.

For the molecule `CCCCCCC(=O)N[C@H]1CNC(=O)[C@H](Cc2ccccc2)NC(=O)[C@H](C)NC(=O)[C@H](CC(C)C)NC(=O)[C@H](CC(C)C)NC1=O`, the inhibition entry in test [2] is “Active”.

In the case of `CCCCCCC(=O)N[C@H]1CNC(=O)[C@H](CC(C)C)NC(=O)[C@H](C)NC(=O)[C@H](CC(C)C)NC(=O)[C@H](Cc2ccccc2)NC1=O`, in test [1], the IC50 is 19100 nM. Moreover, in test [2], the inhibition entry is “Active”.

For the molecule `CCCCCCC(=O)N[C@@H]1CNC(=O)[C@@H](C)NC(=O)[C@@H](C)NC(=O)[C@@H](CC(C)C)NC(=O)[C@@H](Cc2ccccc2)NC1=O`, the IC50 in test [1] was 69100 nM. The inhibition entry in test [2] was “Active”.

For the molecule `CCCCCCC(=O)N[C@@H]1CNC(=O)[C@@H](CC(C)C)NC(=O)[C@@H](C)NC(=O)[C@@H](CC(C)C)NC(=O)[C@@H](Cc2cccc3ccccc23)NC1=O`, in test [2], the inhibition result was “inactive”.

As to `CCCCCCC(=O)N[C@@H]1CNC(=O)[C@@H](CC(C)C)NC(=O)[C@@H](C)NC(=O)[C@@H](CC(C)C)NC(=O)[C@@H](C)NC1=O`, the inhibition result in test [2] was “Active”.

Regarding `CCCCCCC(=O)N[C@@H]1CNC(=O)[C@@H](CC(C)C)NC(=O)[C@@H](CC(C)C)NC(=O)[C@@H](CC(C)C)NC(=O)[C@@H](Cc2ccccc2)NC1=O`, the inhibition entry in test [2] was “inactive”.

With `CCCCCCCCCCCC(=O)N[C@@H]1CNC(=O)[C@@H](CC(C)C)NC(=O)[C@@H](C)NC(=O)[C@@H](CC(C)C)NC(=O)[C@@H](Cc2ccccc2)NC1=O`, the inhibition result in test [2] is “Active”.

Regarding `CCCCCCC(=O)N[C@H]1CNC(=O)[C@H](CC(C)C)NC(=O)[C@@H](C)NC(=O)[C@@H](CC(C)C)NC(=O)[C@H](Cc2ccccc2)NC1=O`, the inhibition entry in test [2] was “inactive”.

On to `CC(=O)N[C@H]1CNC(=O)[C@H](CC(C)C)NC(=O)[C@H](C)NC(=O)[C@H](CC(C)C)NC(=O)[C@H](Cc2ccccc2)NC1=O` (Ac-[Dap]FLAL; lactam 1-C), for which the inhibition entry in test [2] is “inactive”.

For the molecule `CC(=O)NCC(=O)NCC(=O)NCC(=O)N[C@H]1CNC(=O)[C@H](CC(C)C)NC(=O)[C@H](C)NC(=O)[C@H](CC(C)C)NC(=O)[C@H](Cc2ccccc2)NC1=O` (Ac-GGG[Dap]FLAL; lactam 4-C), the inhibition entry in test [2] was “inactive”.

Consider `CCCCCCC(=O)N[C@@H]1CNC(=O)[C@@H](CC(C)C)NC(=O)CNC(=O)[C@@H](CC(C)C)NC(=O)[C@@H](Cc2ccccc2)NC1=O`, for which the inhibition result in test [2] is “inactive”.
